Where a name gives a salt, the structure may show the parent alone.
Key:
Settings in all cases: exposure time 48 h
[1] = test system: Caenorhabditis elegans N2; assay: mean nematode size ln(EXT) after 48 h, plate-adjusted (DMSO control set to 6) (ln(EXT), control-adjusted); higher = larger nematodes / less growth inhibition
In short: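 Chemical at 0.5–200 µM was tested on synchronised C. elegans N2 L1 larvae grown for 48 h at 20°C in K-medium with killed OP50 and 1% DMSO. Per-worm Biosort extinction, cleared of debris by a growth model, was natural-logged and averaged per well to give mean size. Plates were normalised by subtracting the vehicle control mean and adding 6.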

[2] = test system: Caenorhabditis elegans N2; assay: AC50 for larval growth inhibition (Hill fit); higher = less potent
In short: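 AC50 values come from a constrained Hill fit by weighted genetic-algorithm regression and are censored when out of range. The fit used only wells with at least 10 worms. Each well of a 96-well plate held 50 synchronised C. elegans N2 L1 larvae in K-medium with killed OP50, 1% DMSO and 0.5–200 µM chemical for 48 h at 20°C. A COPAS Biosort recorded each worm's size as extinction, which was log-transformed and averaged per well.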

[3] = test system: Caenorhabditis elegans N2; assay: lowest effective concentration for larval growth inhibition (size below effect threshold); higher = less potent
In short: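 Worm size was taken as per-worm extinction on the Biosort, log-transformed and turned into well means. The larvae (C. elegans N2, L1 stage, 50 per 96-well) had spent 48 h at 20°C in K-medium with killed bacteria, 1% DMSO and 0.5, 1, 5, 10, 50, 100 or 200 µM chemical. The lowest effective concentration marks the first dose where the plate-adjusted mean size drops under a cutoff and remains under it at every higher dose; the cutoff is 5.665.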

| Compound | mean nematode size ln(EXT) (ln) ([1]; 0.5 µM) | mean nematode size ln(EXT) (ln) ([1]; 1 µM) | mean nematode size ln(EXT) (ln) ([1]; 5 µM) | mean nematode size ln(EXT) (ln) ([1]; 10 µM) | mean nematode size ln(EXT) (ln) ([1]; 50 µM) | mean nematode size ln(EXT) (ln) ([1]; 100 µM) | mean nematode size ln(EXT) (ln) ([1]; 200 µM) | AC50 for larval growth inhibition [2] [µM] | lowest effective concentration [3] [µM] |
| --- | --- | --- | --- | --- | --- | --- | --- | --- | --- |
| CC(C)CCCCCCCOC(=O)c1ccccc1C(=O)OCCCCCCCC(C)C [Diisodecyl phthalate] | 5.44 | 5.55 | 5.58 | 5.72 | 5.68 | 5.67 | 5.66 | > 200 | 200 |
| CCOC1Oc2ccc(OS(C)(=O)=O)cc2C1(C)C (configuration not stated) [Ethofumesate] | 6.01 | 6.03 | 6.14 | 6.03 | 6.14 | 6.11 | 5.44 | 198 | 200 |
| CCOP(=S)(Oc1ccc([N+](=O)[O-])cc1)c1ccccc1 (configuration not stated) [O-Ethyl O-(p-nitrophenyl) phenylphosphonothioate] | 5.28 | 5.07 | 4.53 | 4.38 | 4.13 | 4.01 | 3.39 | 6.09 | ≤ 0.5 |
| CO[C@H]1/C=C/O[C@@]2(C)Oc3c(C)c(O)c4c(O)c(c(/C=N/N5CCN(C)CC5)c(O)c4c3C2=O)NC(=O)/C(C)=C\C=C\[C@H](C)[C@H](O)[C@@H](C)[C@@H](O)[C@@H](C)[C@H](OC(C)=O)[C@@H]1C [Rifampicin] | 5.96 | 5.92 | 5.94 | 5.98 | 5.84 | 5.84 | 5.56 | > 200 | 200 |
| N#Cc1nn(-c2c(Cl)cc(C(F)(F)F)cc2Cl)c(N)c1[S+]([O-])C(F)(F)F (configuration not stated) [Fipronil] | 5.96 | 5.84 | 5.92 | 5.65 | 5.59 | 5.52 | 5.17 | > 200 | 10 |
| Cc1oc(-c2ccccc2)nc1CCOc1ccc(C[C@H](Nc2ccccc2C(=O)c2ccccc2)C(=O)O)cc1 [Farglitazar] | 5.87 | 5.89 | 5.92 | 6.19 | 4.95 | 4.73 | 4.48 | 39 | 50 |
| O=C(Nc1ccc(Cl)cc1)Nc1ccc(Cl)c(Cl)c1 [3,4,4'-Trichlorocarbanilide] | 5.51 | 4.97 | 4.28 | 4.21 | 4.26 | 4.1 | 3.81 | 0.964 | ≤ 0.5 |
| CN(C)CCCN1c2ccccc2Sc2ccc(Cl)cc21 [Chlorpromazine hydrochloride] | 5.89 | 5.87 | 5.82 | 5.71 | 4.47 | 3.85 | 3.07 | 46.3 | 50 |
| O=NN(c1ccccc1)c1ccccc1 [N-Nitrosodiphenylamine] | 6.12 | 6.03 | 6.08 | 6.08 | 6 | 5.87 | 5.26 | > 200 | 200 |
| N#Cc1c(Cl)c(Cl)c(Cl)c(C#N)c1Cl [Chlorothalonil] | 5.66 | 5.94 | 5.95 | 5.95 | 5.88 | 5.85 | 4.4 | 193 | 200 |
| CCNC(=O)NC(=O)/C(C#N)=N/OC [Cymoxanil] | 6.18 | 6.05 | 6.07 | 6.11 | 5.79 | 5.58 | 4.81 | > 200 | 100 |
| ClC1=C(Cl)[C@]2(Cl)[C@@H]3[C@@H](Cl)[C@H]4O[C@H]4[C@@H]3[C@@]1(Cl)C2(Cl)Cl (single isomer, unassigned; isomer b) [Heptachlor epoxide, isomer B] | 5.72 | 5.69 | 5.48 | 5.44 | 5.2 | 5.14 | 5.11 | 7.71 | 5 |
| OC(c1ccc(Cl)cc1)(c1ccc(Cl)cc1)C(Cl)(Cl)Cl [Dicofol] | 5.64 | 5.63 | 5.3 | 4.39 | 3.83 | 3.61 | 3.35 | 10.8 | ≤ 0.5 |
| CCCCCOC(=O)COc1cc(N2C(=O)C3=C(CCCC3)C2=O)c(F)cc1Cl [Flumiclorac-pentyl] | 5.98 | 6.04 | 6.02 | 5.91 | 5.69 | 5.6 | 4.54 | > 200 | 100 |
| CC[C@H](C)C1O[C@]2(C=C[C@@H]1C)C[C@@H]1C[C@@H](C/C=C(\C)[C@@H](O[C@H]3C[C@H](OC)[C@@H](O[C@H]4C[C@H](OC)[C@H](NC)[C@H](C)O4)[C@H](C)O3)[C@@H](C)/C=C/C=C3\CO[C@@H]4[C@H](O)C(C)=C[C@@H](C(=O)O1)[C@]34O)O2 (some centres not stated) [Emamectin benzoate] | 3.52 | 3.7 | 3.74 | 3.6 | 3.65 | 3.54 | 4.24 | < 0.5 | ≤ 0.5 |
| CC(C)=CCCC(C)CCO (configuration not stated) [Citronellol] | 5.82 | 5.87 | 5.92 | 5.78 | 5.86 | 5.73 | 5.6 | > 200 | 200 |
| C[C@]12CC[C@@H]3c4ccc(O)cc4CC[C@H]3[C@@H]1CC[C@@H]2O [beta-Estradiol] | 5.85 | 5.81 | 5.8 | 5.84 | 5.75 | 5.94 | 5.2 | 188 | 200 |

| Compound | mean nematode size ln(EXT) (ln) ([1]; 0.5 µM) | mean nematode size ln(EXT) (ln) ([1]; 1 µM) | mean nematode size ln(EXT) (ln) ([1]; 5 µM) | mean nematode size ln(EXT) (ln) ([1]; 10 µM) | mean nematode size ln(EXT) (ln) ([1]; 50 µM) | mean nematode size ln(EXT) (ln) ([1]; 100 µM) | mean nematode size ln(EXT) (ln) ([1]; 200 µM) | AC50 for larval growth inhibition [2] [µM] | lowest effective concentration [3] [µM] |
| --- | --- | --- | --- | --- | --- | --- | --- | --- | --- |
| O=C(O)C(F)(F)C(F)(F)C(F)(F)C(F)(F)C(F)(F)C(F)(F)F [Perfluoroheptanoic acid] | 5.87 | 5.85 | 5.88 | 5.83 | 5.74 | 5.42 | 5.57 | > 200 | 100 |
| COCC(C)OCC(C)O (configuration not stated) [Propanol, 1 (or 2)-(2-methoxymethylethyoxy)-] | 5.9 | 5.9 | 5.88 | 5.85 | 5.92 | 5.82 | 5.66 | > 200 | 200 |
| O=C(Nc1ccc([N+](=O)[O-])cc1Cl)c1cc(Cl)ccc1O [Niclosamide] | 5.85 | 5.9 | 5.86 | 6.1 | 6.02 | 5.74 | 5.59 | 98.6 | 200 |
| ClC1(Cl)C2(Cl)C3(Cl)C4(Cl)C(Cl)(Cl)C5(Cl)C3(Cl)C1(Cl)C5(Cl)C24Cl (configuration not stated) [Mirex] | 5.34 | 5.5 | 5.57 | 6.06 | 5.56 | 5.51 | 5.59 | > 200 | 50 |
| CSC1=N[C@@](C)(c2ccccc2)C(=O)N1Nc1ccccc1 [Fenamidone] | 5.9 | 5.9 | 5.86 | 5.96 | 6.02 | 5.83 | 5.41 | 105 | 200 |
| CC1(C(=O)Nc2ccc(O)c(Cl)c2Cl)CCCCC1 [Fenhexamid] | 5.86 | 5.87 | 5.88 | 5.96 | 6 | 5.86 | 4.71 | 112 | 200 |
| C1=Cc2cccc3cccc1c23 [Acenaphthylene] | 5.93 | 5.96 | 5.94 | 5.98 | 5.92 | 5.83 | 5.37 | > 200 | 200 |
| CO/N=C(/C1=NOCCO1)c1ccccc1Oc1ncnc(Oc2ccccc2Cl)c1F [Fluoxastrobin] | 5.86 | 5.94 | 6.05 | 6.07 | 5.65 | 5.6 | 5.12 | > 200 | 50 |
| CCCCc1oc2ccccc2c1C(=O)c1cc(I)c(OCCN(CC)CC)c(I)c1 [Amiodarone HCl] | 5.9 | 5.96 | 5.82 | 5.72 | 4.41 | 3.85 | 3.8 | 31.9 | 50 |
| CCCCC(C#N)(Cn1cncn1)c1ccc(Cl)cc1 (configuration not stated) [Myclobutanil] | 5.83 | 5.77 | 5.8 | 5.86 | 5.68 | 5.55 | 4.8 | > 200 | 100 |
| CCOP(=S)(OCC)Oc1cc(C)nc(C(C)C)n1 [Diazinon] | 5.98 | 5.94 | 5.84 | 5.86 | 5.33 | 4.12 | 3.6 | 70.9 | 50 |
| CCN(CC)CCNc1ccc(CNC=O)c2sc3ccc(OC)cc3c(=O)c12 | 5.89 | 5.87 | 5.75 | 5.65 | 5.25 | 4.73 | 3.81 | 107 | 10 |
| CCCCCCCCCCC [Undecane] | 5.95 | 5.92 | 5.86 | 5.83 | 5.86 | 5.9 | 5.57 | > 200 | 200 |
| CC(C)N1C(=O)N(c2ccccc2)CS/C1=N\C(C)(C)C [Buprofezin] | 5.88 | 5.75 | 5.68 | 5.8 | 5.93 | 6.04 | 3.51 | 181 | 200 |
| NC(=O)N(O)[C@@H]1COc2cc(OCc3ccccc3)ccc21 | 5.86 | 5.87 | 5.82 | 5.77 | 5.84 | 5.81 | 5.59 | > 200 | 200 |
| Nc1ccn([C@@H]2O[C@H](CO)[C@@H](O)[C@@H]2O)c(=O)n1 [Cytarabine HCl] | 5.96 | 5.87 | 5.95 | 6 | 5.89 | 6.03 | 5.47 | > 200 | 200 |

Reference: the supplement of paper PMC4858399
